According to patent US10981932B2, “Macrocyclic indole derivatives” (Bayer Aktiengesellschaft, priority 2016, dated 2021):
Several values for one entry are separate records, joined by “and”; a condition that tells them apart may be missing. Equal entries are not always repeated. Structures can show the parent of a compound that is named as a salt. Where two headings read alike, the source gives them in different places.

Tests used:
SUDHL10 [1] = test: Induction of cytotoxicity (CellTiter-Glo, 5 h), SUDHL10
SUDHL5 [2] = test: Induction of caspase-3/7 activity (Caspase-Glo 3/7), SUDHL5; format: cell-based; conditions: caspase-3/7 induction, SUDHL5 cells, 3 h treatment, median
Summary of the method: (§1)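 Caspase-Glo 3/7 luminescence measured after 3 h compound exposure at 37 °C in SUDHL10 and SUDHL5 cells. EC50 values come from background-corrected signals, with curve bottom set to 1 and plateau set to maximal induction by the reference compound.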

MCL-1 = MCL-1 (Homo sapiens, UniProt Q07820); test: Protein-protein interaction assay MCL-1/Noxa BH3 peptide (MCL-1 assay), TR-FRET; format: binding; conditions: MBP-MCL-1 / Noxa BH3-derived peptide, median
Sequence of MCL-1 (Q07820 whole entry): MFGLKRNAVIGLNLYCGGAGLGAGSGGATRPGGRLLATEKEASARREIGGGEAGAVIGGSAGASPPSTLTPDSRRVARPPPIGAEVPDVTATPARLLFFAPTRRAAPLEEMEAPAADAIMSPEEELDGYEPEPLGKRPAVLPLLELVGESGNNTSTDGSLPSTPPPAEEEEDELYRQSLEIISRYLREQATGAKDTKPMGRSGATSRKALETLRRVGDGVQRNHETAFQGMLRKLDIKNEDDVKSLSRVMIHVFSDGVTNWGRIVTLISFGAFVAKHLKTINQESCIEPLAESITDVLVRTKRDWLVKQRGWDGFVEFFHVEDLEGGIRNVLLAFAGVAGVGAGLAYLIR
Summary of the method: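 MBP-MCL-1 (1 nM final) was preincubated 10 min at 22 °C with compounds (11 concentrations, 0.1 nM–20 μM, duplicates) in Tris pH 7 buffer with NaCl, KF, Tween-20, DTT and BGG. After 1 h at 22 °C in the dark plus overnight at 4 °C, anti-MBP Eu-cryptate/streptavidin-XL665 TR-FRET was read; IC50 came from a 4-parameter fit.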

A2780 = test: Anti-proliferative effect (CellTiter-Glo, 72 h), A2780; format: cell-based; conditions: A2780 cells, median, read-out: IC50 antiproliferation assay A2780 [M] (median)
Summary of the method: (§2)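 CellTiter-Glo luminescence readout of viability, taken on a time-zero plate at day 0 and on treated plates after 72 h incubation at 37 °C in a humidified incubator. Reagent incubation 10 min before reading.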

MV-4-11 = test: Anti-proliferative effect (CellTiter-Glo, 72 h), MV-4-11; format: cell-based; conditions: MV-4-11 cells, median, read-out: IC50 antiproliferation assay MV-4-11 [M] (median)
Summary of the method: as §2

SUDHL5 [3] = test: Anti-proliferative effect (CellTiter-Glo, 72 h), SUDHL5; format: cell-based; conditions: SUDHL5 cells, antiproliferation, median, read-out: Antiproli SUDHL5 [M] (median)
Summary of the method: as §2

SUDHL5 [4] = test: Induction of cytotoxicity (CellTiter-Glo, 5 h), SUDHL5
SUDHL10 [5] = test: Induction of caspase-3/7 activity (Caspase-Glo 3/7), SUDHL10; format: cell-based; conditions: caspase-3/7 induction, SUDHL10 cells, 3 h treatment, median
Summary of the method: as §1

[6] = read-out: Cytotox SUDHL10 [M] (median), SUDHL10 cells, cytotoxicity induction, CellTiter-Glo, 5 h incubation, median
[7] = read-out: Cytotox SUDHL5 [M] (median), SUDHL5 cells, cytotoxicity induction, CellTiter-Glo, 5 h incubation, median
[8] = read-out: Cytotox SUDHL10 [M] (median), SUDHL10 cells, cytotoxicity induction, CellTiter-Glo, 5 h, median
[9] = read-out: Cytotox SUDHL5 [M] (median), SUDHL5 cells, cytotoxicity induction, CellTiter-Glo, 5 h, median
[10] = Homo sapiens, SU-DHL10, 5 h, read-out: Cytotox SUDHL10 [M] (median), SUDHL10 cells, cytotoxicity induction, CellTiter-Glo, 5 h incubation, median
[11] = Homo sapiens, SU-DHL-5, 72 h, 72 h incubation
[12] = Homo sapiens, SU-DHL-5, 5 h, read-out: Cytotox SUDHL5 [M] (median), SUDHL5 cells, cytotoxicity induction, CellTiter-Glo, 5 h incubation, median

Compound | EC50 (SUDHL5 [2]) [µM] | IC50 (MCL-1) [µM] | IC50 (A2780) [M] | IC50 (MV-4-11) [M] | IC50 (SUDHL5 [3]; 72 h incubation) [M] | EC50 (SUDHL10 [5]) [µM] | IC50 (MV-4-11; Homo sapiens, MV4-11, 72 h) [M] | IC50 (A2780; Homo sapiens, A2780, 72 h) [M] | IC50 (SUDHL5 [3]; 72 h) [M] | EC50 (SUDHL5 [2]; Homo sapiens, SU-DHL-5, 3 h) [µM] | EC50 (SUDHL10 [5]; Homo sapiens, SU-DHL10, 3 h) [µM] | IC50 (SUDHL10 [1]; [6]) | IC50 (SUDHL5 [4]; [7]) [M] | IC50 (SUDHL10 [1]; [8]) [M] | IC50 (SUDHL5 [4]; [9]) [M] | further results
COCCn1nc(C2CC2)c2c1COCCCCn1c(C(=O)O)c(CCCOc3cccc4c3CCCC4)c3cccc-2c31 (single isomer, unassigned; enantiomer 2) [Example 166, 3-Cyclopropyl-1-(2-methoxyethyl)-7-[3-(5,6,7,8-tetrahydronaphthalen-1-yloxy)propyl]-1,10,11,12,13,15-hexahydropyrazolo[4′,3′:9,10][1,6]oxazacycloundecino[8,7,6-hi]indole-8-carboxylic acid-N-ethylethanamine Salt (Enantiomer 2)] | 30.7 | 0.041 | 2.82e-05 | 1.88e-05 | 1.26e-05 | > 33 |  |  |  |  |  | > 3.3e-05 M | 2.81e-05 |  |  | 
COCc1nn(C)c2c1-c1cccc3c(CCCOc4cccc5ccccc45)c(C(=O)O)n(c13)CCCCCOC2 (single isomer, unassigned; enantiomer 2) [Example 179, 3-(methoxymethyl)-1-methyl-7-[3-(naphthalen-1-yloxy)propyl]-1,11,12,13,14,16-hexahydro-10H-pyrazolo[3′,4′:3,4][1,7]oxazacyclododecino[5,6,7-hi]indole-8-carboxylic acid-N-ethylethanamine Salt (Enantiomer 2)] | 11.9 | 0.00943 | > 3.3e-05 |  | 1.48e-05 | 26.9 | 9.83e-06 |  |  |  |  | > 3.3e-05 M and 3.15e-05 M | 1.22e-05 |  |  | 
CCc1c2c(nn1CCN1CCOCC1)COCCCCn1c(C(=O)O)c(CCCOc3cccc4ccccc34)c3ccc(C)c-2c31 (single isomer, unassigned; enantiomer 2) [Example 206, 3-ethyl-4-methy-2-[2-(morpholin-4-yl)ethyl]-7-[3-(naphthalen-1-yloxy)propyl]-2,10,11,1213,15-hexahydropyrazolo[4′3′:9,10][1,6]oxazacycloundecino[8,7,6-hi]indole-carboxylic Acid (Enantiomer 2)] | 13.1 | 0.0155 | 2.28e-05 | 1.92e-05 | 1.03e-05 | 17.5 |  |  |  |  |  | 1.6e-05 M | 1.4e-05 |  |  | 
Cn1nc(COCc2ccc(C#N)cc2)c2c1COCCCCn1c(C(=O)O)c(CCCOc3cccc4ccccc34)c3cccc-2c31 (single isomer, unassigned; enantiomer 2) [Example 348, 3-{[(4-cyanobenzyl)oxy]methyl}-1-methyl-7-[3-(naphthalen-1-yloxy)propyl]-1,10,11,12,13,15-hexahydropyrazolo[4′,3′:9,10][1,6]oxazacycloundecino[8,7,6-hi]indole-8-carboxylic acid-N-ethylethanamine Salt (Enantiomer 2)] | 14.6 | 0.0196 | 1.46e-05 | 4.15e-06 |  | 16.8 |  |  | 5.12e-06 |  |  |  |  | 2.81e-05 | 1.38e-05 | 
COc1ccc2c(CCCOc3cccc4ccccc34)c(C(=O)O)n3c2c1-c1c(nn(C)c1C)COCCCC3 (single isomer, unassigned; enantiomer 2) [Example 351, 4-methoxy-2,3-dimethyl-7-[3-(naphthalen-1-yloxy)propyl]-2,10,11,12,13,15-hexahydropyrazolo[4′,3′:9,10][1,6]oxazacycloundecino[8,7,6-hi]indole-8-carboxylic acid-N-ethylethanamine Salt (Enantiomer 2)] | > 33 | 2.03 | > 3.3e-05 | > 3.3e-05 |  | > 33 |  |  | 2.07e-05 |  |  |  |  | > 3.3e-05 | > 3.3e-05 | 
COc1ccc2c(CCCOc3cccc4ccccc34)c(C(=O)O)n3c2c1-c1c(C)nn(C)c1COCCCC3 (single isomer, unassigned; enantiomer 2) [Example 353, 4-methoxy-1,3-dimethyl-7-[3-(naphthalen-1-yloxy)propyl]-1,10,11,12,13,15-hexahydropyrazolo[4′,3′:9,10][1,6]oxazacycloundecino[8,7,6-hi]indole-8-carboxylic Acid Ammonium Salt (Enantiomer 2)] | > 33 | 1.28 | 2.17e-05 | 3.11e-05 |  | > 33 |  |  | 8.32e-06 |  |  |  |  | > 3.3e-05 | > 3.3e-05 | 
Cc1nn(C)c2c1-c1cccc3c(CCCOc4cccc5cc(C(F)(F)F)ccc45)c(C(=O)O)n(c13)CCCCOC2 [Example 364, (rac)-10,12-dimethyl-1-(3-((6-(trifluoromethyl)naphthalen-1-yl)oxy)propyl) -4,5,67,9,10-hexahydropyrazolo[4′,3′:9,10][1,6]oxaazacycloundecino[8,7,6-hi]indole-2-carboxylic Acid] |  | 0.0633 |  |  |  |  | 2.42e-05 | 1.69e-05 |  | 24.2 | > 33 |  |  | 2.04e-05 |  | IC50 (SUDHL10 [1]; Homo sapiens, SU-DHL10, 5 h, read-out: Cytotox SUDHL10 [M] (median), SUDHL10 cells, cytotoxicity induction, CellTiter-Glo, 5 h, median): > 3.3e-05 M; IC50 (SUDHL5 [3]; Homo sapiens, SU-DHL-5, 72 h, 72 h): 9.54e-06 M; IC50 (SUDHL5 [4]; Homo sapiens, SU-DHL-5, 5 h, read-out: Cytotox SUDHL5 [M] (median), SUDHL5 cells, cytotoxicity induction, CellTiter-Glo, 5 h, median): 1.92e-05 M

The next compounds have a lower IC50 (MCL-1) than those just listed; values first:

EC50 (SUDHL5 [2]) [µM] | IC50 (MCL-1) [µM] | IC50 (A2780) [M] | IC50 (MV-4-11) [M] | IC50 (SUDHL5 [3]; 72 h incubation) [M] | EC50 (SUDHL10 [5]) [µM] | IC50 (MV-4-11; Homo sapiens, MV4-11, 72 h) [M] | IC50 (A2780; Homo sapiens, A2780, 72 h) [M] | IC50 (SUDHL5 [3]; 72 h) [M] | EC50 (SUDHL5 [2]; Homo sapiens, SU-DHL-5, 3 h) [µM] | EC50 (SUDHL10 [5]; Homo sapiens, SU-DHL10, 3 h) [µM] | Compound | IC50 (SUDHL10 [1]; [6]) | IC50 (SUDHL5 [4]; [7]) [M] | IC50 (SUDHL10 [1]; [8]) [M] | IC50 (SUDHL5 [4]; [9]) [M] | further results
0.674 | 0.00126 |  | 4.78e-06 |  | 4.2 |  | 2.25e-05 | 1.99e-06 |  |  | Cc1c2c(nn1C)COCCCCn1c(C(=O)O)c(CCCOc3cccc4cc(F)ccc34)c3cccc-2c31 (single isomer, unassigned; enantiomer 2) [Example 302, (+)-7-{3-[(6-fluoronaphthalen-1-yl)oxy]propyl}-2,3-dimethyl-2,10,11,12,13,15-hexahydropyrazolo[4′,3′:9,10][1,6]oxazacycloundecino[8,7,6-hi]indole-8-carboxylic Acid (Enantiomer 2)] |  |  | 3.49e-06 | 1.05e-06 | 
 | 0.00499 |  |  |  |  | 1.35e-05 | 1.9e-05 |  | 5.55 | 15.7 | Cc1nn(C)c2c1-c1cccc3c(CCCOc4cccc5ccccc45)c(C(=O)O)n(c13)CCCCCN(C)C2 [Example 237, (rac)-1,3,15-Trimethyl-7-[3-(naphthalen-1-yloxy)propyl]-1,10,11,12,13,14,15,16-octahydropyrazolo[4′,3′:4,5][1,7]diazacyclododecino[3,2,1-hi]indole-8-carboxylic Acid] |  |  |  |  | IC50 (SUDHL10 [1]; [10]): 1.18e-05 M; IC50 (SUDHL5 [3]; [11]): 5.65e-06 M; IC50 (SUDHL5 [4]; [12]): 6.6e-06 M
 | 0.00885 |  |  |  |  | 2.56e-05 | > 3.3e-05 |  | 11.6 | > 33 | Cc1nn(C)c2c1-c1cccc3c(CCCOc4cccc5c4CCCC5)c(C(=O)O)n(c13)CCCCCN(C)C2 [Example 240, (rac)-1,3,15-Trimethyl-7-[3-(5,6,7,8-tetrahydronaphthalen-1-yloxy)propyl]-1,10,11,12,13,14,15,16-octahydropyrazolo[4′,3′:4,5][1,7]diazacyclododecino[3,2,1-hi]indole-8-carboxylic Acid] |  |  |  |  | IC50 (SUDHL10 [1]; [10]): > 3.3e-05 M; IC50 (SUDHL5 [3]; [11]): 1.19e-05 M; IC50 (SUDHL5 [4]; [12]): 1.26e-05 M
